The OPERA property sets (Mansouri et al. 2018)

Details: not given

Point of comparison: `CC1=CC(=O)CCC1`, boiling point 201 °C. Against it:
- CC(C)=CCCC(C)CCO (racemic) — higher, 224 °C
- Cc1ccc(N)cc1C — higher, 228 °C
- CCC(=O)CC(C)CC (stereo not drawn) — lower, 159 °C
- COc1cccc2ccccc12 — higher, 269 °C
- CCC(C)(C)C(=O)Cl — lower, 132 °C
- c1ccc(CC2CCNCC2)cc1 — higher, 270 °C
- CCC#CCC — lower, 81 °C
- CC(c1ccccc1)c1ccccc1 — higher, 273 °C
- COC(=O)C[C@@H](C)C(=O)OC — lower, 196 °C
- C=CCCC — lower, 29.9 °C
- C#C/C=C\C — lower, 48.4 °C
- O=CCc1ccccc1 — lower, 195 °C
- CCCCC(CC)COC(=O)c1ccc(C(=O)OCC(CC)CCCC)c(C(=O)OCC(CC)CCCC)c1 (stereo not drawn) — higher, 414 °C
- ClCCC[Si](Cl)(Cl)Cl — lower, 182 °C
- Cc1ccc(O)c(O)c1 — higher, 251 °C
- CC(C)(C)OC(=O)C(F)(F)F — lower, 83 °C
- CCOCOCC — lower, 88 °C
- CC(=O)C=O — lower, 72 °C
- CN1CN(C)CN(C)C1 — lower, 163 °C
- Cc1cccc2c1CCC2 — higher, 205 °C
- CCC(C)(C)c1ccccc1 — lower, 192 °C
- Cc1cc(C(C)(C)C)c(O)c(C(C)(C)C)c1 — higher, 265 °C
- CC(=O)Nc1ccc(N)cc1 — higher, 267 °C
- Fc1cc(F)nc(F)n1 — lower, 98 °C
- CC=C(Cl)Cl — lower, 76.5 °C
- CC(C)OC=O — lower, 68.2 °C
- O=C1c2ccccc2C(=O)c2ccccc21 — higher, 377 °C
- CCCCC(CC)COCCO (stereo not drawn) — higher, 229 °C
- Cn1ccccc1=O — higher, 250 °C
- O[C@@H]1CCc2ccccc21 — higher, 220 °C
- C=C(C=O)CC — lower, 92.5 °C
- CCCOC — lower, 39.1 °C
- CCOC(=O)C(C)=O — lower, 155 °C
- CCC(C)=NO — lower, 152 °C
- CCCOB(OCCC)OCCC — lower, 180 °C
- O=Cc1ccccn1 — lower, 180 °C
- C/C=N/O — lower, 115 °C
- CCC(C)OC(C)=O (stereo not drawn) — lower, 112 °C
- C#CCCCCCCCCC — lower, 196 °C
- C=C(C)c1ccccc1 — lower, 165 °C

Point of comparison: `c1ccc2c(c1)-c1cccc3c1c-2cc1ccccc13`, log10 Henry constant (atm·m³/mol) -6.18. Against it:
- Cc1ccc(N)cc1C — higher, -5.73
- Cc1c(Cl)ccc(Cl)c1Cl — higher, -2.82
- CC(=O)C=O — lower, -6.57

Point of comparison: `O=C1c2ccccc2C(=O)c2ccccc21`, log10 vapour pressure (mmHg) -6.94. Against it:
- Cc1ccc(N)cc1C — higher, -1.55
- CC(c1ccccc1)c1ccccc1 — higher, -1.85
- C=CCCC — higher, 2.8
- O=CCc1ccccc1 — higher, -0.407
- N#C/C(=N\OCC1OCCO1)c1ccccc1 — higher, -5.4
- CCCN(CCC)c1c([N+](=O)[O-])cc(C(F)(F)F)c(N)c1[N+](=O)[O-] — lower, -7.61
- CCOC(=O)C(SP(=S)(OC)OC)c1ccccc1 (stereo not drawn) — higher, -5.58
- CCCCCCCCCCCCCCCCCCCCCCCCCCCCCCCCC — lower, -10.4
- CCOCOCC — higher, 1.53
- Cc1cc(C(C)(C)C)c(O)c(C(C)(C)C)c1 — higher, -2.29
- CC=C(Cl)Cl — higher, 1.96
- CC(C)OC=O — higher, 2.14
- O=C(O)COc1ccc(Cl)cc1CO — higher, -6.18
- c1ccc2c(c1)-c1cccc3c1c-2cc1ccccc13 — higher, -6.3
- CCCOC — higher, 2.67
- CCC(C)OC(C)=O (stereo not drawn) — higher, 1.23
- C=C(C)c1ccccc1 — higher, 0.279

Point of comparison: `N#C/C(=N\OCC1OCCO1)c1ccccc1`, melting point 77.7 °C. Against it:
- Cc1ccc(N)cc1C — lower, 51 °C
- Clc1ccc(CSc2ccc(Cl)cc2)cc1 — lower, 75 °C
- CCn1cc(C(=O)O)c(=O)c2cc(F)c(N3CCNCC3)cc21 — higher, 228 °C
- O=C(Oc1ccccc1)n1c(C(F)(F)F)nc2cc(Cl)c(Cl)cc21 — higher, 103 °C
- Clc1ccc(Cl)nc1 — lower, 60.5 °C
- c1ccc(CC2CCNCC2)cc1 — lower, 16.8 °C
- CCC#CCC — lower, -103 °C
- CC(c1ccccc1)c1ccccc1 — lower, -17.9 °C
- COc1ccc(O[C@@H]2O[C@H](CO)[C@H](O)[C@H](O)[C@H]2O)cc1 — higher, 159 °C
- C=CCCC — lower, -165 °C
- CC(C)(C)N(NC(=O)c1ccccc1)C(=O)c1ccccc1 — higher, 178 °C
- O=CCc1ccccc1 — lower, 33.5 °C
- CCC(Br)(CC)C(=O)NC(N)=O — higher, 118 °C
- NC(=O)c1ccc(N)cc1 — higher, 182 °C
- O=C(C(Cl)Cl)N(CCO)Cc1ccc(Oc2ccc([N+](=O)[O-])cc2)cc1 — higher, 136 °C
- Cc1ccc([N+](=O)[O-])cc1N — higher, 106 °C
- NC(=O)OCc1ccccc1 — higher, 88 °C
- O=C(O)Cc1c(F)c(F)c(F)c(F)c1F — higher, 109 °C
- CCCN(CCC)c1c([N+](=O)[O-])cc(C(F)(F)F)c(N)c1[N+](=O)[O-] — higher, 124 °C
- CCOC(=O)C(SP(=S)(OC)OC)c1ccccc1 (stereo not drawn) — lower, 17.5 °C
- CC(=O)Nc1ccc(C=O)cc1 — higher, 157 °C
- Cc1ncc(COP(=O)(O)O)c(C=O)c1O.O — higher, 142 °C
- NNC(=O)c1ccccc1O — higher, 148 °C
- Cc1ccc(O)c(O)c1 — lower, 65 °C
- CCCCCCCCCCCCCCCCCCCCCCCCCCCCCCCCC — lower, 72 °C
- CN(C)c1ccc(C(=O)c2ccc(N(C)C)cc2)cc1 — higher, 179 °C
- CCOCOCC — lower, -66.5 °C
- BrCC(Br)(Br)Br — lower, 0 °C
- CCC(C(N)=O)n1nc2ccccc2n1 (stereo not drawn) — higher, 128 °C
- CN1CN(C)CN(C)C1 — lower, -27 °C
- OC1(c2ccccc2)CCCCC1 — lower, 63.5 °C
- CC(=O)[O-].[Na+] — higher, 324 °C
- N#CC(C#N)=C1c2cc([N+](=O)[O-])ccc2-c2c1cc([N+](=O)[O-])cc2[N+](=O)[O-] — higher, 267 °C
- Cc1cc(C(C)(C)C)c(O)c(C(C)(C)C)c1 — lower, 71 °C
- Cc1cc(N)c2ncccc2c1 — lower, 73 °C
- CC(=O)Nc1ccc(N)cc1 — higher, 166 °C
- Oc1ccc(OCc2ccccc2)cc1 — higher, 122 °C
- CC(C)OC=O — lower, -80 °C
- O=C(O)COc1ccc(Cl)cc1CO — higher, 141 °C
- Cc1cc(Cl)cc([N+](=O)[O-])c1 — lower, 61 °C
- CCCCC(O)(CCCC)CCCC — lower, 20 °C
- O=C1c2ccccc2C(=O)c2ccccc21 — higher, 286 °C
- Cn1ccccc1=O — lower, 31 °C
- O[C@@H]1CCc2ccccc21 — lower, 54.8 °C
- Cn1c2ccccc2c2ccccc21 — higher, 89.3 °C
- c1ccc2c(c1)-c1cccc3c1c-2cc1ccccc13 — higher, 168 °C
- CCCCCCCC(=O)Oc1c(I)cc(C#N)cc1I — lower, 59.5 °C
- CC1(C)CC[C@]2(C(=O)O)CC[C@]3(C)C(=CC[C@@H]4[C@@]5(C)CC[C@H](O)[C@@](C)(C=O)[C@@H]5CC[C@]43C)[C@@H]2C1 — higher, 275 °C
- CCOC(=O)C(C)=O — lower, -50 °C
- CCC(C)=NO — lower, -29.5 °C
- O=C(O)c1cc(Br)ccc1Br — higher, 157 °C
- COc1cccc2c(=O)c3c(n(C)c12)O[C@@H](C(C)C)C3 — higher, 119 °C
- Oc1c(Cl)cc(Cl)c2cccnc12 — higher, 180 °C
- OCc1ccccc1C(c1ccc(O)cc1)c1ccc(O)cc1 — higher, 202 °C
- C/C=N/O — lower, 45 °C
- CC1=CC(=O)CCC1 — lower, -21 °C
- CCC(C)OC(C)=O (stereo not drawn) — lower, -98.9 °C
- Cc1cc(C)c(C(=O)O)c(C)c1 — higher, 154 °C
- C#CCCCCCCCCC — lower, -25 °C
- C=C(C)c1ccccc1 — lower, -23.2 °C

With `Cc1ccc(N)cc1C` the ready biodegradability was “readily biodegradable”.
In the case of `CCC(=O)CC(C)CC` (stereo not drawn), the ready biodegradability is reported as “readily biodegradable”.
For `COc1cccc2ccccc12`, the ready biodegradability was “not readily biodegradable”.
For `CCCCC(CC)COC(=O)c1ccc(C(=O)OCC(CC)CCCC)c(C(=O)OCC(CC)CCCC)c1` (stereo not drawn), the ready biodegradability was “not readily biodegradable”.
With `CCOC(=O)C(SP(=S)(OC)OC)c1ccccc1` (stereo not drawn) the ready biodegradability was “not readily biodegradable”.
In the case of `Cc1ccc(O)c(O)c1`, the ready biodegradability is reported as “not readily biodegradable”.
For `OCC1CC23CCC1(CC2)CC3CO` (stereo not drawn), the ready biodegradability was “not readily biodegradable”.
In the case of `CN(C)c1ccc(C(=O)c2ccc(N(C)C)cc2)cc1`, the ready biodegradability is reported as “not readily biodegradable”.
In the case of `CCCCCCCC/C=C\CCCCCCCCOC(=O)CCCCC(=O)OCCCCCCCC/C=C\CCCCCCCC`, the ready biodegradability is reported as “readily biodegradable”.
With `O=c1c2ccccc2c(=O)c2c1ccc1[nH]c3c(ccc4c(=O)c5ccccc5c(=O)c43)[nH]c12` the ready biodegradability was “not readily biodegradable”.
For `CCC(C)(C)c1ccccc1`, the ready biodegradability was “not readily biodegradable”.
With `Cc1cc(C(C)(C)C)c(O)c(C(C)(C)C)c1` the ready biodegradability was “readily biodegradable”.
For `CC(=O)Nc1ccc(N)cc1`, the ready biodegradability was “readily biodegradable”.
For `S=C(NC1CCCCC1)NC1CCCCC1`, the ready biodegradability was “not readily biodegradable”.
In the case of `O=C1c2ccccc2C(=O)c2ccccc21`, the ready biodegradability is reported as “readily biodegradable”.
In the case of `CCC(C)=NO`, the ready biodegradability is reported as “not readily biodegradable”.
For `CCC(C)OC(C)=O` (stereo not drawn), the ready biodegradability was “readily biodegradable”.
For `C=C(C)c1ccccc1`, the ready biodegradability was “not readily biodegradable”.

`C=CCCC` gave a log10 Koa of 1.93.

Point of comparison: `CCCN(CCC)c1c([N+](=O)[O-])cc(C(F)(F)F)c(N)c1[N+](=O)[O-]`, log10 Koc (L/kg) 4.11. Against it:
- CCOC(=O)C(SP(=S)(OC)OC)c1ccccc1 (stereo not drawn) — lower, 3
- CN(C)c1ccc(C(=O)c2ccc(N(C)C)cc2)cc1 — lower, 2.21
- CCOC(=O)COC(=O)c1ccccc1C(=O)OCC — lower, 2.54
- O=C1c2ccccc2C(=O)c2ccccc21 — lower, 3.57

Point of comparison: `c1ccc2c(c1)-c1cccc3c1c-2cc1ccccc13`, log10 biodegradation half-life (days) 2.45. Against it:
- CCCCCCCCCCCCCCCCCCCCCCCCCCCCCCCCC — within 0.2 log units, 2.56
- Cc1cccc2c1CCC2 — lower, 0.301

Same assay, conditions: fish

Point of comparison: `S=C(NC1CCCCC1)NC1CCCCC1`, log10 BCF 0.64. Against it:
- Cc1ccc(N)cc1C — higher, 0.95
- COc1cccc2ccccc12 — higher, 2.21
- CCCCC(CC)COC(=O)c1ccc(C(=O)OCC(CC)CCCC)c(C(=O)OCC(CC)CCCC)c1 (stereo not drawn) — higher, 1.17
- CCOC(=O)C(SP(=S)(OC)OC)c1ccccc1 (stereo not drawn) — higher, 1.69
- CN(C)c1ccc(C(=O)c2ccc(N(C)C)cc2)cc1 — higher, 1.45
- COc1cc(Cl)c(Cl)c(Cl)c1 — higher, 3.09
- Cc1cc(C(C)(C)C)c(O)c(C(C)(C)C)c1 — higher, 3.03
- CCC(C)=NO — within 0.2 log units, 0.7
- C=C(C)c1ccccc1 — higher, 1.8

Point of comparison: `CN(C)c1ccc(C(=O)c2ccc(N(C)C)cc2)cc1`, log10 biotransformation half-life (days) -0.77. Against it:
- Cc1ccc(N)cc1C — lower, -0.99
- COc1cccc2ccccc12 — higher, 0.39
- CCOC(=O)C(SP(=S)(OC)OC)c1ccccc1 (stereo not drawn) — within 0.2 log units, -0.75
- Cc1cc(C(C)(C)C)c(O)c(C(C)(C)C)c1 — higher, 0.32
- CCC(C)=NO — lower, -1.33
- C=C(C)c1ccccc1 — within 0.2 log units, -0.71
